Experiments:
[1] = molecular target: 5-hydroxytryptamine receptor 3A (Homo sapiens) (UniProt P46098); details: Compound concentration 10.0 uM
[2] = molecular target: Hormonally up-regulated neu tumor-associated kinase (Homo sapiens) (UniProt P57058); details: Compound concentration 1000.0 nM
[3] = test system: Tyrosine-protein kinase ABL1 (Homo sapiens), P00519 [F317I]; details: Compound concentration 1000.0 nM
[4] = molecular target: Death-associated protein kinase 1 (Homo sapiens) (UniProt P53355); details: Compound concentration 1000.0 nM
[5] = molecular target: Glycogen synthase kinase-3 beta (Homo sapiens) (UniProt P49841); details: Compound concentration 1000.0 nM
[6] = molecular target: Hepatocyte growth factor receptor (Homo sapiens) (UniProt P08581); details: Compound concentration 1000.0 nM
[7] = molecular target: Myosin light chain kinase family member 4 (Homo sapiens) (UniProt Q86YV6); details: Compound concentration 1000.0 nM
[8] = molecular target: Serine/threonine-protein kinase WNK3 (Homo sapiens) (UniProt Q9BYP7); details: Compound concentration 1000.0 nM
[9] = molecular target: T1, Bone morphogenetic protein receptor type-2 (Homo sapiens) (UniProt Q13873); details: Compound concentration 1000.0 nM
T1 sequence (whole entry): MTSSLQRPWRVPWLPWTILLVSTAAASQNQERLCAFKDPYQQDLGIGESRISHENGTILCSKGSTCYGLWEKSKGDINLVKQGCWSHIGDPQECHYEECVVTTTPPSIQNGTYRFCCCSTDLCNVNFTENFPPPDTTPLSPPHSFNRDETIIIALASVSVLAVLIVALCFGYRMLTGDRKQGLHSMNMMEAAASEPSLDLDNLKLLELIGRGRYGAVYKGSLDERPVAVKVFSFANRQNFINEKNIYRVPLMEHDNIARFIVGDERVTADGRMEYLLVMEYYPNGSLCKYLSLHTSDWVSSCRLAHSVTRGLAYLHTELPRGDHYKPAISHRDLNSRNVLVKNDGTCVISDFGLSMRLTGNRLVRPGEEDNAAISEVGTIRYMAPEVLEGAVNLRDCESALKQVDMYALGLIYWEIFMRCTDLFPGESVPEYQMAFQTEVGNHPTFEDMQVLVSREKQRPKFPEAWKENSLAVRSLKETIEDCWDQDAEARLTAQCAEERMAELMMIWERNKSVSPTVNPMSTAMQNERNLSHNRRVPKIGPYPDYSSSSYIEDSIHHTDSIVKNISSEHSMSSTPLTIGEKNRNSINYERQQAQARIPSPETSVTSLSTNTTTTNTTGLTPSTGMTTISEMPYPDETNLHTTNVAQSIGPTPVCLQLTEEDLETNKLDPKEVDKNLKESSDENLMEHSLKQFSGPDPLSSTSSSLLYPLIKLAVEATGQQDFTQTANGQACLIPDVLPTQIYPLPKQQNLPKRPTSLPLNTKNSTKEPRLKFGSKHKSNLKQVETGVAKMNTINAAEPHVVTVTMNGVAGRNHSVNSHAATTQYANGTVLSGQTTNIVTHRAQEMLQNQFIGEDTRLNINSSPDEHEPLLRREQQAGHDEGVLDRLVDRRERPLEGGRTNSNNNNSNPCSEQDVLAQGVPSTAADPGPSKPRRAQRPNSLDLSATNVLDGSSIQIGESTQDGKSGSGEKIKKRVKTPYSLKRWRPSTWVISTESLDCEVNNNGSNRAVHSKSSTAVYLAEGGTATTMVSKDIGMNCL

[10] = molecular target: Tyrosine-protein kinase Fes/Fps (Homo sapiens) (UniProt P07332); details: Compound concentration 1000.0 nM
[11] = molecular target: T2, Tyrosine-protein kinase ITK/TSK (Homo sapiens) (UniProt Q08881); details: Compound concentration 1000.0 nM
T2 sequence (whole entry): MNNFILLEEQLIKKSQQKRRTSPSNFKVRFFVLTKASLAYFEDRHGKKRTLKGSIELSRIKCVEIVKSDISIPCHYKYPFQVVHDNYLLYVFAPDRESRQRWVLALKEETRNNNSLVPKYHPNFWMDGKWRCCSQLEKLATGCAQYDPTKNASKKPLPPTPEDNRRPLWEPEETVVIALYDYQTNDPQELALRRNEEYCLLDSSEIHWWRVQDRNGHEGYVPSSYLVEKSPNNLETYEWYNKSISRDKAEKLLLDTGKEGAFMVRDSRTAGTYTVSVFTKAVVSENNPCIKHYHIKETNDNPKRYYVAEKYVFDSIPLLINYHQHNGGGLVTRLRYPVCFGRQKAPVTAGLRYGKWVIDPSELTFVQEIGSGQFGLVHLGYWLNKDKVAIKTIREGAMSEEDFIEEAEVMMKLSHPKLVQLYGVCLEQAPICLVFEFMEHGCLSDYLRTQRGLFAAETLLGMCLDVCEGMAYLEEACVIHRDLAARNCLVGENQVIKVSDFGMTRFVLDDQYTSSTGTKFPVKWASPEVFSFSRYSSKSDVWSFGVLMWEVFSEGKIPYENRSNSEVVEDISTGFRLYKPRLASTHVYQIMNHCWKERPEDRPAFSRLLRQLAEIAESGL

[12] = molecular target: Mitogen-activated protein kinase 4 (Homo sapiens) (UniProt P31152); details: Compound concentration 1000.0 nM
[13] = molecular target: Mitogen-activated protein kinase kinase kinase 12 (Homo sapiens) (UniProt Q12852); details: Compound concentration 1000.0 nM
[14] = molecular target: Serine/threonine-protein kinase 35 (Homo sapiens) (UniProt Q8TDR2); details: Compound concentration 1000.0 nM
[15] = molecular target: 5-hydroxytryptamine receptor 1A (Homo sapiens) (UniProt P08908); details: Compound concentration 10.0 uM

Chain of Serine/threonine-protein kinase 35 (Homo sapiens) (Q8TDR2 whole entry): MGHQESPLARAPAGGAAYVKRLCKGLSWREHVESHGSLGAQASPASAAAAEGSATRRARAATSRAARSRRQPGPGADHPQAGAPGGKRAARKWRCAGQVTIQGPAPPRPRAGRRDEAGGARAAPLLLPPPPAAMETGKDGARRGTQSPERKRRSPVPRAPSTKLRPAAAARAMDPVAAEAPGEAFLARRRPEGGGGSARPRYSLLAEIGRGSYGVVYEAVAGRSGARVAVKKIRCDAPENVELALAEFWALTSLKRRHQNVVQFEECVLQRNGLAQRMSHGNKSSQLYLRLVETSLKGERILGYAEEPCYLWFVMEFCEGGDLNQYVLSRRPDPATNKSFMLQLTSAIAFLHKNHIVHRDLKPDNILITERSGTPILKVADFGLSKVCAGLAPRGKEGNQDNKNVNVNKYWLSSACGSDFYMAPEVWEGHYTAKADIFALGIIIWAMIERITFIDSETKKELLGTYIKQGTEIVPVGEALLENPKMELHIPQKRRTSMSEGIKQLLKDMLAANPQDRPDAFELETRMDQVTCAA
Chain of Death-associated protein kinase 1 (Homo sapiens) (P53355 whole entry, looked up): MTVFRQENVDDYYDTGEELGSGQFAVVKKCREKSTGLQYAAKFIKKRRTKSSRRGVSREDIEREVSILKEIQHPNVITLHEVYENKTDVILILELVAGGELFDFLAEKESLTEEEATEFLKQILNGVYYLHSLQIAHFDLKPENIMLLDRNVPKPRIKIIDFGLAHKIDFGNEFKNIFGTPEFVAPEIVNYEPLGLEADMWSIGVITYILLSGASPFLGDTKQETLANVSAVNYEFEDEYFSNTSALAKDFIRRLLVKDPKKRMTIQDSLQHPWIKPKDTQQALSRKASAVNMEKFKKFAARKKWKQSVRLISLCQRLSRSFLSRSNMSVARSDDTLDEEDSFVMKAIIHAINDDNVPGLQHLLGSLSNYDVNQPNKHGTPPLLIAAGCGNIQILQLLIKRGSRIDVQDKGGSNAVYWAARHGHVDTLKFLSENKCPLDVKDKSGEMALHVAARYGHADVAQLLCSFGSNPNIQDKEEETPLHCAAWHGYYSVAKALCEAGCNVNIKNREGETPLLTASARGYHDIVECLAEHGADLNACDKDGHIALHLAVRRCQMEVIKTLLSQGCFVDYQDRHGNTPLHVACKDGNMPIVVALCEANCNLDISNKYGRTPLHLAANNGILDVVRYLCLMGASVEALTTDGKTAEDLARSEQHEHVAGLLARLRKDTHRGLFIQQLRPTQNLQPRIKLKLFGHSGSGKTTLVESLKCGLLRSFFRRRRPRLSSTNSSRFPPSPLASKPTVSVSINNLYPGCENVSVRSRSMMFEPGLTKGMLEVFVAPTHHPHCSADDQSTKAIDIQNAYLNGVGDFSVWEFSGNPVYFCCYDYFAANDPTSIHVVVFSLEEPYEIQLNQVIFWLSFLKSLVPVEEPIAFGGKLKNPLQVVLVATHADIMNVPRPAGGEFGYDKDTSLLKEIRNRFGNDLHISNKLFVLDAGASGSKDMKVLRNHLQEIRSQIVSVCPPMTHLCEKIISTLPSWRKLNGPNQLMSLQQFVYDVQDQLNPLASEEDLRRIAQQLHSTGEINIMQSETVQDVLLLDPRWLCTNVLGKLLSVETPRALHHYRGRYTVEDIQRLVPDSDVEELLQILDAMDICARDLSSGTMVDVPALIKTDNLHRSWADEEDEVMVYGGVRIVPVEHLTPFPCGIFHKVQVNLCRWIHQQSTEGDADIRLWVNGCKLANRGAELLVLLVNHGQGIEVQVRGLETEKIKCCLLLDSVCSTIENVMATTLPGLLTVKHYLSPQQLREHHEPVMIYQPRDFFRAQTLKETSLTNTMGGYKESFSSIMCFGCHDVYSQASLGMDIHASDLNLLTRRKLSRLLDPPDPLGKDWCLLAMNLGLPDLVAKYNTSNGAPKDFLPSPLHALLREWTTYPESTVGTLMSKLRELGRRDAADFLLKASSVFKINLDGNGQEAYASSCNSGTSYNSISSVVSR
Chain of Hormonally up-regulated neu tumor-associated kinase (Homo sapiens) (P57058 whole entry): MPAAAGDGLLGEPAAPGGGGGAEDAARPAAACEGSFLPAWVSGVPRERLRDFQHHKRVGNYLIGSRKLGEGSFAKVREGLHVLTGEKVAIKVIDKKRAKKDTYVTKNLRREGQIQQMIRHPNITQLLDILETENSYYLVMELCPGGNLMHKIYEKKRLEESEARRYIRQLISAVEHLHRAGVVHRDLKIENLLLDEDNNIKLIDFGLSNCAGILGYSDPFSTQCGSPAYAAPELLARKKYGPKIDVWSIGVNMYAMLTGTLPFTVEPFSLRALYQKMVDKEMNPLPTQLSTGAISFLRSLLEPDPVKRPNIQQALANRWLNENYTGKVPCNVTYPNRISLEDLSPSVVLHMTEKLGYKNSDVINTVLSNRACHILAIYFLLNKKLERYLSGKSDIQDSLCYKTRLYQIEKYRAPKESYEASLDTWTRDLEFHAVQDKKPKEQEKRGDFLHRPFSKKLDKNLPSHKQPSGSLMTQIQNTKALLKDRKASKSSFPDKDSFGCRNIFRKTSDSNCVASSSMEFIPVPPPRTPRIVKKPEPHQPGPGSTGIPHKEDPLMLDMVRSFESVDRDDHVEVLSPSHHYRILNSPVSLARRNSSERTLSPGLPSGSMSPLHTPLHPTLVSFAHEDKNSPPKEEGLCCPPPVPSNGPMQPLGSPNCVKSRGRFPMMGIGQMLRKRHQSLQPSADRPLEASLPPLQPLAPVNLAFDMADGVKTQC
Chain of Hepatocyte growth factor receptor (Homo sapiens) (P08581 whole entry): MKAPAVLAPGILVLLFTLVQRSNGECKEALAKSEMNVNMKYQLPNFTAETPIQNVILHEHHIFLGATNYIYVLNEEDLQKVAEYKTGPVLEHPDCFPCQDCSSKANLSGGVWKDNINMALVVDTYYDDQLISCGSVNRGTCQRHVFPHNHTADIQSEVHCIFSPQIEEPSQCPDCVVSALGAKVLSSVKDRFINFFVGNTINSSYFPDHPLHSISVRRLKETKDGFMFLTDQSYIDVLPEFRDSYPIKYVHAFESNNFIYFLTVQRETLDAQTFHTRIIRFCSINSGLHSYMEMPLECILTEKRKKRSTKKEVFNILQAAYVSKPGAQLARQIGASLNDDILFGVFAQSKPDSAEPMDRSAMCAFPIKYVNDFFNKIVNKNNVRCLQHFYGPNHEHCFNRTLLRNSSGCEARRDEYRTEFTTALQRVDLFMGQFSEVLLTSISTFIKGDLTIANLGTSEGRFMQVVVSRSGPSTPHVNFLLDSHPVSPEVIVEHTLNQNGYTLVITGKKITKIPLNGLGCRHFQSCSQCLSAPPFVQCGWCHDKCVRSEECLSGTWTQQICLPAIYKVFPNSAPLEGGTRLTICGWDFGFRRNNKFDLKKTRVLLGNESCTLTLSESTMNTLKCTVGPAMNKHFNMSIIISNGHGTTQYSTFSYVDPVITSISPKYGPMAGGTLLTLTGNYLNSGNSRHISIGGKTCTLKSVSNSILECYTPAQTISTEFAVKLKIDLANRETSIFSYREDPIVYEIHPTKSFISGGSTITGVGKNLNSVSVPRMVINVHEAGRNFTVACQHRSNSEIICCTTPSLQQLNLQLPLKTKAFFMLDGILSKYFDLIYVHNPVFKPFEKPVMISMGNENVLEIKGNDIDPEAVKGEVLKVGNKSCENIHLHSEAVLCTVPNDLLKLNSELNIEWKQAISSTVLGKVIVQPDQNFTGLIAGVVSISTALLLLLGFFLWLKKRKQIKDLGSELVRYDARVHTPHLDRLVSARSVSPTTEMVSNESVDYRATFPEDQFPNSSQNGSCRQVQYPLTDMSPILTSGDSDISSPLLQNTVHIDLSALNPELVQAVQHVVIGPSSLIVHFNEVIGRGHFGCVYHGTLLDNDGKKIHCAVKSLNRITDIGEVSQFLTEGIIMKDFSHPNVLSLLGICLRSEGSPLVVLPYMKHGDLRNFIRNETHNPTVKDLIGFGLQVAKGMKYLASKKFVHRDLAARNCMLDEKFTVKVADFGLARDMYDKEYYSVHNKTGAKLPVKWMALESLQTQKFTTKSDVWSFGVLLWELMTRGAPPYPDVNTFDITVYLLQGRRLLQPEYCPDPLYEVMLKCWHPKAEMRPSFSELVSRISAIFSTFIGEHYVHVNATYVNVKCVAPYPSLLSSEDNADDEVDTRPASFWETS
Chain of Tyrosine-protein kinase Fes/Fps (Homo sapiens) (P07332 whole entry): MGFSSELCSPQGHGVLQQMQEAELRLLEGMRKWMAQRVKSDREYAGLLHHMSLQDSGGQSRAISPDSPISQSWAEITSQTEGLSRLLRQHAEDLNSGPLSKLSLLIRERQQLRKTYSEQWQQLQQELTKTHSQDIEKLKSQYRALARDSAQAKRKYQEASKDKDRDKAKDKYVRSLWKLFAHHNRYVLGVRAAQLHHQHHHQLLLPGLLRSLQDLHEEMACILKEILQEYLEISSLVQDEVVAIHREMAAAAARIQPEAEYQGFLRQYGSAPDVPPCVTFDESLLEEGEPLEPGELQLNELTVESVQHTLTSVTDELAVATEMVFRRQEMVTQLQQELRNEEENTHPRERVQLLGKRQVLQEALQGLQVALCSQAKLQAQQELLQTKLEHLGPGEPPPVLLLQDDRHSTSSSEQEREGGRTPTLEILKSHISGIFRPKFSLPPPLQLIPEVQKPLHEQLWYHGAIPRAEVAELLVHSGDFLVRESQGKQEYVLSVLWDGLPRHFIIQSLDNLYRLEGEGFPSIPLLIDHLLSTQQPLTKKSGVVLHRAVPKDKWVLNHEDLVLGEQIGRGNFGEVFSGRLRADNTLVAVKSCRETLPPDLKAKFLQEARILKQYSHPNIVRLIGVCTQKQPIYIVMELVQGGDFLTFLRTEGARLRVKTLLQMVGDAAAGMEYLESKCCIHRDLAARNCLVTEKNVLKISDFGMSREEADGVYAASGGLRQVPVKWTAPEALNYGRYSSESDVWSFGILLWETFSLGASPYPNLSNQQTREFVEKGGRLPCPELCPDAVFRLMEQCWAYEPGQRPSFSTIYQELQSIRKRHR

SMILES	inhibition [1] [%]	residual activity [2] [%]	residual activity [3] [%]	residual activity [4] [%]	residual activity [5] [%]	residual activity [6] [%]	residual activity [7] [%]	residual activity [8] [%]	residual activity [9] [%]	residual activity [10] [%]	residual activity [11] [%]	residual activity [12] [%]	residual activity [13] [%]	residual activity [14] [%]	inhibition [15] [%]
CC1=C(C#N)C(c2ccc3c(c2)c(NC(=O)c2ccccc2C)nn3C)C(C#N)=C(C)N1 [BAY-974]	9.93	78	78	89	81	24	100	82	79	84	97	100	80	86	8.55
CCc1ccccc1C(=O)Nc1n[nH]c2c(C)c(F)c(C3C(C#N)=C(C)N(C)C(C)=C3C#N)cc12 [BAY-3827]	2.79	100	100	100	100	7.3	100	90	100	68	86	96	94	100	5.2

— ChEMBL document CHEMBL4507319 (2021)
